Data: patent US10975068B2, “6-aminopyridin-3-yl thiazoles as modulators of RORγT” (Janssen Pharmaceutica NV, priority 2016, dated 2021)
Like-named read-outs stand apart in the source and are kept apart here.

Experiments:
full-length human RORγt = full-length human RORγt (Homo sapiens (Human), UniProt P51449); test: RORγt (full-length human) reporter assay, Conditions B or C; format: cell-based; conditions: for inhibition at 3 µM: at 3 μM compound concentration, read-out: RORγt (FL) Reporter Assay B or C, % inhibition
Procedure, shortened: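 HEK293T cells transiently co-transfected with GAL4-DBD–full-length human RORγt (nt 142-1635, NM_001001523.1) plus GAL4-firefly and CMV-Renilla luciferase reporters; compounds added 4-6 h post-transfection for 16-20 h in 1.3% FBS, 0.1% DMSO. Firefly signal normalized to DMSO and saturating reference compound, then to Renilla; IC50 from concentration plots.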

[1] = target: human RORγt ligand binding domain (RORγt LBD) (Homo sapiens (Human), UniProt P51449); test: RORγt ThermoFluor® assay (thermal shift binding); conditions: read-out: ThermoFluor® Assay, Kd
Procedure, shortened: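 His-tagged human RORγt LBD (0.065 mg/mL) with 60 μM 1,8-ANS in 100 mM Hepes pH 7.0, 10 mM NaCl, 2.5 mM GSH, 0.002% Tween-20 was heated at 1 °C/min.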

[2] = read-out: RORγt (FL) Reporter Assay B or C, IC50

full-length human RORγt, sequence (P51449 other isoform, or with tags, fused parts or gaps): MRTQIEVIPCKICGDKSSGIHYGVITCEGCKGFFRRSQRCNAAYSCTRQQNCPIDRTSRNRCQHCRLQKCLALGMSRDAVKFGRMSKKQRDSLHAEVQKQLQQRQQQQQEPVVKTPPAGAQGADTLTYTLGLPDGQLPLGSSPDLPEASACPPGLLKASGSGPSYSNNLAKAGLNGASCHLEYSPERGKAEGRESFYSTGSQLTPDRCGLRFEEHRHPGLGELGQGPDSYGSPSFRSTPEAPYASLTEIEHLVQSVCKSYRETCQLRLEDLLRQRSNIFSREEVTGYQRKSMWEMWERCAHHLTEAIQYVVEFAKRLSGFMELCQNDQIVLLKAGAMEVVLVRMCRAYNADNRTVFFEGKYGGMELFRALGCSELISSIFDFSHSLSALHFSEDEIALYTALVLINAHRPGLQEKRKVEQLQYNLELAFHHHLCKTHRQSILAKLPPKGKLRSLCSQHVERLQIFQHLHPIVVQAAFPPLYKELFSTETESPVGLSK
human RORγt ligand binding domain (RORγt LBD), sequence (P51449 other isoform, or with tags, fused parts or gaps): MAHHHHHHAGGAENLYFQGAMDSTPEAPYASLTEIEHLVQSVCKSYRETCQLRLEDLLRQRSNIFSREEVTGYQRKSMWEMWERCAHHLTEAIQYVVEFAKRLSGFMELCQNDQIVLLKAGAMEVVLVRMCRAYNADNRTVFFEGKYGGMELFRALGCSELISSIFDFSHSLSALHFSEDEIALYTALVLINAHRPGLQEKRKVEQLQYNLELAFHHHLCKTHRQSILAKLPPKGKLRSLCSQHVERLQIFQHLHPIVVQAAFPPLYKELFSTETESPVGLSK

| inhibition at 3 µM (full-length human RORγt) [%] | IC50 (full-length human RORγt; [2]) [nM] | Kd [1] [nM] | SMILES | IC50 (full-length human RORγt; RORγt (FL) Reporter Assay B or C, IC50) [nM] |
| --- | --- | --- | --- | --- |
| 100 | 13 | 1.3 | C[C@H]1CCCN1C(=O)c1nc(C(=O)NCC(C)(C)O)sc1-c1cnc(NC(C2CC2)C(F)(F)F)cc1C(F)F (stereo partly drawn) [Example 294] |  |
| 108 | 14 | 2.9 | C[C@H]1CCCN1C(=O)c1nc(C(=O)NCC(C)(C)O)sc1-c1cnc(N[C@@H](C2CC2)C(F)(F)F)cc1C(F)F [Example 295] |  |
| 108 | 7.1 | 0.5 | C[C@H]1CCCN1C(=O)c1nc(C(=O)NCC(C)(C)O)sc1-c1cnc(NC(C)(C)CC(F)(F)F)cc1C(F)F [Example 296] |  |
| 110 | 50 | 18 | CC(C)[C@@H](C)Nc1cc(C(F)F)c(-c2sc(C(=O)NCC(C)(C)O)nc2C(=O)N2CCC[C@@H]2C)cn1 [Example 297, 5-(4-(Difluoromethyl)-6-(((R)-3-methylbutan-2-yl)amino)pyridine-3-yl)-N-(2-hydroxy-2-methylpropyl)-4-((S)-2-methylpyrrolidine-1-carbonyl)thiazole-2-carboxamide] |  |
| 99 | 7.7 | 3.4 | C[C@H]1CCCN1C(=O)c1nc(C(=O)NCC(C)(C)O)sc1-c1cnc(N[C@H](C)C(C)(C)C)cc1C(F)F [Example 298, 5-(4-(Difluoromethyl)-6-(((R)-3,3-dimethylbutan-2-yl)amino)pyridin-3-yl)-N-(2-hydroxy-2-methylpropyl)-4-((S)-2-methylpyrrolidine-1-carbonyl)thiazole-2-carboxamide] |  |
| 103 | 11 | 0.91 | C[C@H](Nc1cc(C(F)F)c(-c2sc(C(=O)NCC(C)(C)O)nc2C(=O)N2CCC[C@@H]2C)cn1)C(C)(C)C [Example 299, 5-(4-(Difluoromethyl)-6-(((S)-3,3-dimethylbutan-2-yl)amino)pyridin-3-yl)-N-(2-hydroxy-2-methylpropyl)-4-((S)-2-methylpyrrolidine-1-carbonyl)thiazole-2-carboxamide] |  |
| 100 | 29 | 1.6 | CC(C)[C@H](C)Nc1cc(C(F)F)c(-c2sc(C(=O)NCC(C)(C)O)nc2C(=O)N2CCC[C@@H]2C)cn1 [Example 300, 5-(4-(Difluoromethyl)-6-(((S)-3-methylbutan-2-yl)amino)pyridine-3-yl)-N-(2-hydroxy-2-methylpropyl)-4-((S)-2-methylpyrrolidine-1-carbonyl)thiazole-2-carboxamide] |  |
| 95 | 84 | 30 | C[C@H]1CCCN1C(=O)c1nc(C(=O)NCC(C)(C)O)sc1-c1cnc(NCC2CCC2)cc1C(F)F [Example 301, (S)-5-(6-((Cyclobutylmethyl)amino)-4-(difluoromethyl)pyridine-3-yl)-N-(2-hydroxy-2-methylpropyl)-4-(2-methylpyrrolidine-1-carbonyl)thiazole-2-carboxamide] |  |
| 86 | > 3000 | 49 | C[C@H]1CCCN1C(=O)c1nc(C(=O)NCc2n[nH]c(=O)[nH]2)sc1-c1cnc(NC(C)(C)C)cc1C(F)(F)F [Example 302, (S)-5-(6-(tert-Butylamino)-4-(trifluoromethyl)pyridin-3-yl)-4-(2-methylpyrrolidine-1-carbonyl)-N-((5-oxo-4,5-dihydro-1H-1,2,4-triazol-3-yl)methyl)thiazole-2-carboxamide] |  |
| 88 | 740 | 15 | C[C@H]1CCCN1C(=O)c1nc(C(=O)NCc2nnn[nH]2)sc1-c1cnc(NC(C)(C)C)cc1C(F)(F)F [Example 303, (S)—N-((1H-Tetrazol-5-yl)methyl)-5-(6-(tert-butylamino)-4-(trifluoromethyl)pyridin-3-yl)-4-(2-methylpyrrolidine-1-carbonyl)thiazole-2-carboxamide] |  |
| 102 | 92 | 5.1 | C[C@H](NC(=O)c1nc(C(=O)N2CCC[C@@H]2C)c(-c2cnc(N[C@H](C)C(F)(F)F)cc2C(F)F)s1)C(C)(C)O [Example 304, 5-(4-(Difluoromethyl)-6-(((R)-1,1,1-trifluoropropan-2-yl)amino)pyridin-3-yl)-N—((S)-3-hydroxy-3-methylbutan-2-yl)-4-((S)-2-methylpyrrolidine-1-carbonyl)thiazole-2-carboxamide] |  |
| 104 | 130 | 10 | C[C@H]1CCCN1C(=O)c1nc(C(=O)N[C@H](C)C(C)(C)O)sc1-c1cnc(N[C@H](C)C(F)(F)F)cc1C(F)F [Example 306, 5-(4-(Difluoromethyl)-6-(((R)-1,1,1-trifluoropropan-2-yl)amino)pyridin-3-yl)-N—((R)-3-hydroxy-3-methylbutan-2-yl)-4-((S)-2-methylpyrrolidine-1-carbonyl)thiazole-2-carboxamide] |  |
| 102 | 150 | 43 | CNC(=O)c1nc(C(=O)N2CCC[C@@H]2C)c(-c2cnc(NC(C)(C)C)cc2C(F)(F)F)s1 [Example 307, (S)-5-(6-(tert-Butylamino)-4-(trifluoromethyl)pyridin-3-yl)-N-methyl-4-(2-methylpyrrolidine-1-carbonyl)thiazole-2-carboxamide] |  |
| 107 | 260 | 96 | C[C@H]1CCCN1C(=O)c1nc(C(N)=O)sc1-c1cnc(NC(C)(C)C)cc1C(F)(F)F [Example 308, (S)-5-(6-(tert-Butylamino)-4-(trifluoromethyl)pyridin-3-yl)-4-(2-methylpyrrolidine-1-carbonyl)thiazole-2-carboxamide] |  |
| 95 | 13 | 16 | CCNC(=O)c1nc(C(=O)N2CCC[C@@H]2C)c(-c2cnc(NC(C)(C)C)cc2C(F)(F)F)s1 [Example 309, (S)-5-(6-(tert-Butylamino)-4-(trifluoromethyl)pyridin-3-yl)-N-ethyl-4-(2-methylpyrrolidine-1-carbonyl)thiazole-2-carboxamide] |  |
| 92 | 36 | 8.7 | C[C@H]1CCCN1C(=O)c1nc(C(=O)N[C@H]2C[C@H](O)C2)sc1-c1cnc(N[C@@H](C2CC2)C(F)(F)F)cc1C(F)F [Example 310, 5-(6-(((S)-1-Cyclopropyl-2,2,2-trifluoroethyl)amino)-4-(difluoromethyl)pyridin-3-yl)-N-((1r,3S)-3-hydroxycyclobutyl)-4-((S)-2-methylpyrrolidine-1-carbonyl)thiazole-2-carboxamide] |  |
| 107 | 40 | 3.7 | C[C@H]1CCCN1C(=O)c1nc(C(=O)N[C@H](C)C(C)(C)O)sc1-c1cnc(N[C@@H](C2CC2)C(F)(F)F)cc1C(F)F [Example 311, 5-(6-(((S)-1-Cyclopropyl-2,2,2-trifluoroethyl)amino)-4-(difluoromethyl)pyridin-3-yl)-N—((R)-3-hydroxy-3-methylbutan-2-yl)-4-((S)-2-methylpyrrolidine-1-carbonyl)thiazole-2-carboxamide] |  |
| 106 | 27 | 2.2 | C[C@H](NC(=O)c1nc(C(=O)N2CCC[C@@H]2C)c(-c2cnc(N[C@@H](C3CC3)C(F)(F)F)cc2C(F)F)s1)C(C)(C)O [Example 312, 5-(6-(((S)-1-Cyclopropyl-2,2,2-trifluoroethyl)amino)-4-(difluoromethyl)pyridin-3-yl)-N—((S)-3-hydroxy-3-methylbutan-2-yl)-4-((S)-2-methylpyrrolidine-1-carbonyl)thiazole-2-carboxamide] |  |
| 106 | 36 | 0.74 | C[C@H](NC(=O)c1nc(C(=O)N2CC(F)(F)C[C@@H]2C)c(-c2cnc(N[C@@H](C3CC3)C(F)(F)F)cc2C(F)F)s1)C(C)(C)O [Example 313, 5-(6-(((S)-1-Cyclopropyl-2,2,2-trifluoroethyl)amino)-4-(difluoromethyl)pyridin-3-yl)-4-((S)-4,4-difluoro-2-methylpyrrolidine-1-carbonyl)-N—((S)-3-hydroxy-3-methylbutan-2-yl)thiazole-2-carboxamide] |  |
| 101 | 35 | 1.4 | C[C@H]1CC(F)(F)CN1C(=O)c1nc(C(=O)N[C@H](C)C(C)(C)O)sc1-c1cnc(N[C@@H](C2CC2)C(F)(F)F)cc1C(F)F [Example 314, 5-(6-(((S)-1-Cyclopropyl-2,2,2-trifluoroethyl)amino)-4-(difluoromethyl)pyridin-3-yl)-4-((S)-4,4-difluoro-2-methylpyrrolidine-1-carbonyl)-N—((R)-3-hydroxy-3-methylbutan-2-yl)thiazole-2-carboxamide] |  |

| SMILES | inhibition at 3 µM (full-length human RORγt) [%] | IC50 (full-length human RORγt; [2]) [nM] | Kd [1] [nM] | IC50 (full-length human RORγt; RORγt (FL) Reporter Assay B or C, IC50) [nM] |
| --- | --- | --- | --- | --- |
| C[C@H](Nc1cc(C(F)F)c(-c2sc(C(=O)NC3CCC3O)nc2C(=O)N2C3CCC2CC3)cn1)C(F)(F)F (stereo partly drawn) [Example 290, 4-((1s,4s)-7-Azabicyclo[2.2.1]heptane-7-carbonyl)-5-(4-(difluoromethyl)-6-(((S)-1,1,1-trifluoropropan-2-yl)amino)pyridin-3-yl)-N-(-trans-2-hydroxycyclobutyl)thiazole-2-carboxamide] | 103 | 6.5 | 6.3 |  |
| C[C@H](Nc1cc(C(F)F)c(-c2sc(C(=O)N[C@H]3CCC[C@@H]3O)nc2C(=O)N2C3CCC2CC3)cn1)C(F)(F)F [Example 293, 4-((1s,4s)-7-Azabicyclo[2.2.1]heptane-7-carbonyl)-5-(4-(difluoromethyl)-6-(((S)-1,1,1-trifluoropropan-2-yl)amino)pyridin-3-yl)-N-((1S,2S)-2-hydroxycyclopentyl)thiazole-2-carboxamide] | 94 |  | 2 | 13 |
